# Columns and labels:
# [1] = tested on: hippocampal neurogenesis (Dentate Gyrus); experiment: in vivo neurogenesis assay (BrdU+ cells in dentate gyrus); set-up: species or system mice; details: living mice; vehicle (DMSO) 7.3
# Excerpt: The screen was simple in concept. With help from chemists in the Department of Biochemistry at UTSWMC, we selected 1,000 druglike chemicals from the 250,000 compounds in our high throughput screening center. The compounds were selected to preserve representative chemical diversity of the entire library. They were further selected to enhance the representation of chiral molecules, and to avoid untoward chemical properties such as reactive moieties. The 1,000 molecules were randomly pooled into groups of ten, and each pool was administered directly into the left ventricle of two adult mice. Intracranial delivery was facilitated by stereotactic positioning of a canula fed directly by an Alzet mini-pump containing the mixture of ten chemicals. The drug mixture was administered over a week-long period at concentrations anticipated to deliver mid-nanomolar levels of the ten test compounds. Daily injections of the thymidine analog, bromodeoxyuridine (BrdU), were coadministered in order to monitor the formation of new hippocampal nerve cells. Following compound administration, animals were sacrificed such that brain tissue could be recovered, sectioned and stained with antibodies to BrdU. […]
# [2] = target: T1, p70 (NAMPT) (Homo sapiens, UniProt P43490); experiment: binding competition for photo-crosslinking of P7C3-S326 to p70 in H2122 cells; details: 0.3 μM P7C3-S326 plus 5 μM competitor, p70 band intensity, P7C3-S326 alone compared with plus competitor, vehicle 1.0
# T1 construct: endogenous in cells; host or cells: H2122 lung cancer cells
# T1 sequence (P43490 whole entry): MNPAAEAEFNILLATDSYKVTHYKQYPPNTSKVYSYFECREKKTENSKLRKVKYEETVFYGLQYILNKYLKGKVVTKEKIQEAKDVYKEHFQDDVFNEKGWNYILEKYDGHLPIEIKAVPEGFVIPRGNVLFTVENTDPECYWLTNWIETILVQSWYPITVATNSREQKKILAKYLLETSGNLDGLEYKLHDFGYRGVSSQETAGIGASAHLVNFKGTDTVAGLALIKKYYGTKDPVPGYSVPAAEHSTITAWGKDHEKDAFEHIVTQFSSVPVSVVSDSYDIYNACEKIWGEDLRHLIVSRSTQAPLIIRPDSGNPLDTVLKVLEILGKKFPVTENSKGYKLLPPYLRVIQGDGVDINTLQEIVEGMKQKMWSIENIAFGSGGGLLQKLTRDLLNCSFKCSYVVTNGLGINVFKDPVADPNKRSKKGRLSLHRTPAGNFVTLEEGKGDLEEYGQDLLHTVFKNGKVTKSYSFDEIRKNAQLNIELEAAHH
# Method: Cultured cells were co-exposed to P7C3-S326 (0.3 uM) and the individual P7C3 variants (5 uM), exposed to UV light, lysed, clicked to a fluorescent dye and run on SDS gels (FIG. 11).
# P7C3-S326 was diluted to 0.3 μM in culture medium to treat H2122 cells. After incubation at 37° C. for 2 hours, H2122 cells were irradiated for 15 minutes under 306 nm ultraviolet light in a Stratalinker 2400 (Stratagene). Cells were then harvested by dissolving in 1% SDS lysis buffer 50 mM HEPES, pH 8.0, 2 mM MgCl2, 10 mM KCl, 1% SDS, 50 units/ml of Benzonase (Sigma), supplemented with Sigmafast protease inhibitor (Sigma).
# The reaction was incubated at room temperature with constant agitation at 1,000 rpm on a thermomixer (Eppendorf) for 1 hour. Samples were then mixed with SDS sample loading buffer and loaded on an 8% SDS-PAGE gel, separated, and imaged using a Typhoon imager (filter settings: excitation 533 nm, emission 555 nm, and high sensitivity).
# H2122 cells were incubated with the P7C3-S326 (0.3 μM) in the absence or presence of P7C3 analogs for 2 hours following by UV crosslinking. […] The samples were run on SDS-PAGE gels scanned using a Typhoon Imager. The p70 band intensity was analyzed and quantified by Image J, and the relative intensity in each assay was normalized to that of the DMSO control.
SMILES,Neurogenesis # BrdU+ Cells (X10E06)/mm3 Dentate Gyrus [1],Binding competition [2]
OC(CSc1ccccc1)CN1c2ccccc2CCc2ccccc21 (stereo not drawn) [S134],9.7 (X10E06)/mm3,1.9
CNCC(O)CN1c2ccccc2CCc2ccccc21 (stereo not drawn) [S143],7.3 (X10E06)/mm3,1.3
N#Cc1ccc2c(c1)c1cc(Br)ccc1n2CC(=O)O [S224],10.1 (X10E06)/mm3,1.3
FC(COc1ccccc1)Cn1c2c(c3cc(Br)ccc31)CNCC2 (stereo not drawn) [S108],7.6 (X10E06)/mm3,1.0
O=S(=O)(CC(O)Cn1c2ccc(Br)cc2c2cc(Br)ccc21)c1cccc(O)c1 (stereo not drawn) [S93],11.9 (X10E06)/mm3,1.4
"CN[C@H]1CC[C@@H](c2ccc(Cl)c(Cl)c2)c2ccccc21 [S123, Zoloft, reference compound]",9.4 (X10E06)/mm3,1.5
N#Cc1ccc2c(c1)c1cc(C#N)ccc1n2CC(O)CSc1ccccc1 (stereo not drawn) [S110],10.5 (X10E06)/mm3,6.2
CC(=O)NCC(F)Cn1c2ccc(Br)cc2c2cc(Br)ccc21 (stereo not drawn) [S218],9.5 (X10E06)/mm3,3.2
OC(CNc1ccccn1)Cn1c2ccc(Br)cc2c2cc(Br)ccc21 (stereo not drawn) [S38],13.7 (X10E06)/mm3,4.2
COc1cccc(NCC(O)Cn2c3ccc(Br)cc3c3cc(Br)ccc32)n1 (stereo not drawn) [S188],13.1 (X10E06)/mm3,3.1
Oc1ccc(SCC(O)Cn2c3ccc(Br)cc3c3cc(Br)ccc32)cc1 (stereo not drawn) [S92],8.4 (X10E06)/mm3,2.5
[N-]=[N+]=Nc1ccc(NCC(O)Cn2c3ccc(Br)cc3c3cc(Br)ccc32)cc1 (stereo not drawn) [S48],14.5 (X10E06)/mm3,3.4
[N-]=[N+]=Nc1cccc(NCC(O)Cn2c3ccc(Br)cc3c3cc(Br)ccc32)c1 (stereo not drawn) [S36],8.9 (X10E06)/mm3,3.1
OC(CNc1ccccc1)CN(c1ccc(Br)cc1)c1ccc(Br)cc1 (stereo not drawn) [S72],11.7 (X10E06)/mm3,1.4
COc1cccc(N(/C=C/Cn2c3ccc(Br)cc3c3cc(Br)ccc32)S(=O)(=O)C(F)(F)F)c1 [S179],17.3 (X10E06)/mm3,0.9
OCCn1c2ccc(Br)cc2c2cc(Br)ccc21 [S171],13.1 (X10E06)/mm3,3.2
COc1cccc(NCC(O)CN2c3ccccc3CCc3ccccc32)c1 (stereo not drawn) [S158],12.5 (X10E06)/mm3,1.3
[O-][n+]1cccc2c1c1cc(Br)ccc1n2CC(O)COc1ccccc1 (stereo not drawn) [S198],11.0 (X10E06)/mm3,5.1
OC(CNC1CCCCC1)Cn1c2ccc(Br)cc2c2cc(Br)ccc21 (stereo not drawn) [S109],9.4 (X10E06)/mm3,1.2
COc1c(Br)cc(OC)c2c1c1cc(Br)ccc1n2CC(O)CNc1ccccc1 (stereo not drawn) [S160],13.1 (X10E06)/mm3,4.3
N#Cc1ccc2c(c1)c1ccccc1n2CC(O)COc1ccccc1 (stereo not drawn) [S138],10.4 (X10E06)/mm3,6.5
OC(COC1CCCCC1)Cn1c2ccc(Br)cc2c2cc(Br)ccc21 (stereo not drawn) [S178],13.8 (X10E06)/mm3,1.7
C=C/C=N\C=C\NCC(O)Cn1c2ccc(Br)cc2c2cc(Br)ccc21 (stereo not drawn) [S58],7.2 (X10E06)/mm3,2.5
OC(COc1ccccc1)Cn1c2ccc(Br)cc2c2cc(Br)ccc21 (stereo not drawn) [S39],14.8 (X10E06)/mm3,2.6

# Reference: patent US9243281B2, “Neuroprotective chemicals and methods for identifying and using same” (Board of Regents of The University of Texas System, priority 2013, dated 2016)
